# Target: Bek (Homo sapiens, UniProt P21802)
# Experiment: Inhibitory activity against Bek-autophosphorylation using ELISA method in OCUM-2MD3 cells
# Type: cell-based
# Settings: 1 hr with compound, read-out: IC50 (concentration necessary for inhibiting 50% of Bek-phosphorylation)
# How it was run: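 Sandwich ELISA (anti-phosphotyrosine capture, anti-Bek detection, peroxidase, 450 nm) measured Bek autophosphorylation in OCUM-2MD3 lysates after 1 hr compound treatment at 37° C in 0.1% serum medium. IC50 derived by scaling between no-drug (100%) and excess positive control at 1000 nM (0%).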
# Sequence of Bek (P21802 431-767 limits assumed): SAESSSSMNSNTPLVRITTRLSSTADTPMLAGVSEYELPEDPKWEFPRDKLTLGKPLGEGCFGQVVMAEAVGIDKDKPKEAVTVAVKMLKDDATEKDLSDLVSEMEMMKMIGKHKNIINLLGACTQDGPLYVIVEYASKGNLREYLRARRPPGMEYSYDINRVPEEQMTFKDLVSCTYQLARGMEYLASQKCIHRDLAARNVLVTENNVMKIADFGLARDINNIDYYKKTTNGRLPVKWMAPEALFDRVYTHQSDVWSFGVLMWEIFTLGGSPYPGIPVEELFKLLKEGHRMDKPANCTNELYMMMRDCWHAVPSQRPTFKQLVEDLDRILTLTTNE
row,SMILES,IC50
1,"COc1cc2c(Oc3ccc(Nc4ccc(C(C)(C)C)cc4)cc3)ccnc2cc1OCC1CCCCN1C (centres unmarked) [Compound 55, (4-Tert-butylphenyl)-{4-[6-methoxy-7-(1-methylpiperidin-2-ylmethoxy)quinolin-4-yloxy]phenyl}amine]",8000 nM
2,"COc1cc2c(Oc3ccc(Nc4ccc(C(C)(C)C)cc4)cc3)ccnc2cc1OCCN1CCCC1 [Compound 39, (4-Tert-butylphenyl)-{4-[6-methoxy-7-(2-pyrrolidin-1-ylethoxy)-quinolin-4-yloxy]phenyl}amine]",570 nM
3,"COc1cc2c(Oc3ccc(NC(=O)NC4CCCC(C)(C)C4)c(F)c3)ccnc2cc1OCCN1CCOCC1 (centres unmarked) [Compound 133, 1-(3,3-Dimethyl-cyclohexyl)-3-{2-fluoro-4-[6-methoxy-7-(2-morpholin-4-yl-ethoxy)-quinolin-4-yloxy]-phenyl}-urea]",9.2 nM
4,"COc1cc2c(Oc3ccc(Nc4ccc(C(C)(C)C)cc4)cc3)ccnc2cc1OCCCN1C[C@@H](C)O[C@@H](C)C1 [Compound 69, (4-Tert-butylphenyl)-(4-{7-[3-(2,6-dimethylmorpholin-4-yl)propoxy]-6-methoxyquinolin-4-yloxy}phenyl)amine]",248 nM
5,"COc1cc2c(Oc3ccc(Nc4ccc(C(C)(C)C)cc4)cc3)ccnc2cc1OCC(O)CN1CC(C)OC(C)C1 (centres unmarked) [Compound 253, 1-{4-[4-(4-Tert-butyl-phenylamino)-phenoxy]-6-methoxy-quinolin-7-yloxy}-3-(2,6-dimethyl-morpholin-4-yl)-propan-2-ol]",28.5 nM
6,"COc1cc2nccc(Oc3ccc(NC4CCC(C(C)(C)C)CC4)cc3)c2cc1OC (centres unmarked) [Compound 77, (4-Tert-butylcyclohexyl)-[4-(6,7-dimethoxyquinolin-4-yloxy)phenyl]amine]",3450 nM
7,"COc1cc2c(Oc3ccc(Nc4ccc(C(C)(C)C)cc4)c(Cl)c3)ccnc2cc1OCCN1CCC(O)CC1 [Compound 278, 1-(2-{4-[4-(4-Tert-butyl-phenylamino)-3-chloro-phenoxy]-6-methoxy-quinolin-7-yloxy}-ethyl)-piperidin-4-ol]",1120 nM
8,"COc1cc2nccc(Oc3ccc(Nc4ccc(C(C)(C)C)cc4)cc3)c2cc1OCCN(CCO)CCO [Compound 358, 2-[(2-{4-[4-(4-Tert-butyl-phenylamino)-phenoxy]-7-methoxy-quinolin-6-yloxy}-ethyl)-(2-hydroxy-ethyl)-amino]-ethanol]",51.7 nM
9,"CCN(CC)CCOc1cc2nccc(Oc3ccc(Nc4ccc(C(C)(C)C)cc4)cc3)c2cc1OC [Compound 41, N1-[4-(Tert-butyl)phenyl]-4-({7-[2-(diethylamino)ethoxy]-6-methoxy-4-quinolyl}oxy)aniline]",480 nM
10,"COc1cc2nccc(Oc3ccc(N(C)c4ccc(C(C)(C)C)cc4)cc3)c2cc1OC [Compound 20, (4-Tert-butylphenyl)-[4-(6.7-dimethoxyquinolin-4-yloxy)phenyl]-methylamine]",325 nM
11,"COc1cc2nccc(Oc3ccc(Nc4ccc(C(C)(C)C)cc4)c(Cl)c3)c2cc1OC [Compound 11, (4-Tert-butylphenyl)-[2-chloro-4-(6,7-dimethoxyquinolin-4-yloxy)phenyl]amine]",320 nM
12,"COc1cc2nccc(Oc3ccc(NC(=O)NC4CC(C)CC(C)(C)C4)c(F)c3)c2cc1OC (centres unmarked) [Compound 106, 1-[4-(6,7-Dimethoxy-quinolin-4-yloxy)-2-fluoro-phenyl]-3-(3,3,5-trimethyl-cyclohexyl)-urea]",19.7 nM
13,"COc1cc2c(Oc3ccc(Nc4ccc(C(C)(C)C)cc4)cc3)ccnc2cc1OCCCCN1CCCCC1 [Compound 36, (4-Tert-butylphenyl)-{4-[6-methoxy-7-(4-piperidin-1-ylbutoxy)-quinolin-4-yloxy]phenyl}amine]",247 nM
14,"COc1cc2c(Oc3ccc(NC(=O)NCCC(C)(C)C)cc3)ccnc2cc1OCCCN1CCC(CCO)CC1 [Compound 220, 1-(3,3-Dimethyl-butyl)-3-[4-(7-{3-[4-(2-hydroxy-ethyl)-piperidin-1-yl]-propoxy}-6-methoxy-quinolin-4-yloxy)-phenyl]-urea]",12 nM
15,"COc1cc2c(Oc3ccc(Nc4ccc(C(C)(C)C)cc4)cc3)ccnc2cc1OCC(O)CN1CCC(N2CCCC2)CC1 (centres unmarked) [Compound 259, 1-{4-[4-(4-Tert-butyl-phenylamino)-phenoxy]-6-methoxy-quinolin-7-yloxy}-3-(4-pyrrolidin-1-yl-piperidin-1-yl)-propan-2-ol]",46.6 nM

# The next lines start with the values.
row,IC50,SMILES
1,279 nM,"COc1cc2nccc(Oc3ccc(Nc4ccc(C(C)(C)C)cc4)c(C)c3)c2cc1OC [Compound 13, (4-Tert-butylphenyl)-[4-(6,7-dimethoxyquinolin-4-yloxy)-2-methylphenyl]amine]"
2,60 nM,"COc1cc2c(Oc3ccc(NC(=O)NCCC(C)(C)C)c(Cl)c3)ccnc2cc1OCCCN1CCC(C)CC1 [Compound 207, 1-(2-Chloro-4-{6-methoxy-7-[3-(4-methyl-piperidin-1-yl)-propoxy]-quinolin-4-yloxy}-phenyl)-3-(3,3-dimethyl-butyl)-urea]"
3,25 nM,"COc1cc2c(Oc3ccc(NC(=O)NCCC(C)(C)C)cc3)ccnc2cc1OCCCl [Compound 152, 1-{4-[7-(2-Chloro-ethoxy)-6-methoxy-quinolin-4-yloxy]-phenyl}-3-(3,3-dimethyl-butyl)-urea]"
4,285 nM,"COc1cc2nccc(Oc3ccc(Nc4ccc(C(C)(C)C)cc4)cc3Cl)c2cc1OC [Compound 12, (4-Tert-butylphenyl)-[3-chloro-4-(6,7-dimethoxyquinolin-4-yloxy)phenyl]amine]"
5,9.4 nM,"COc1cc2c(Oc3ccc(NC(=O)NCCC(C)(C)C)c(F)c3)ccnc2cc1OCCCN(C)CCO [Compound 333, 1-(3,3-Dimethyl-butyl)-3-[2-fluoro-4-(7-{3-[(2-hydroxy-ethyl)-methyl-amino]-propoxy}-6-methoxy-quinolin-4-yloxy)-phenyl]-urea]"
6,58.6 nM,"COc1cc2nccc(Oc3ccc(NC(=O)NCCC(C)(C)C)c(C)c3C)c2cc1OC [Compound 141, 1-[4-(6,7-Dimethoxy-quinolin-4-yloxy)-2,3-dimethyl-phenyl]-3-(3,3-dimethyl-butyl)-urea]"
7,< 10 nM,"COc1cc2nccc(Oc3ccc(NC(=O)NCCC(C)(C)C)cc3)c2cc1OC [Compound 101, 1-[4-(6,7-Dimethoxy-quinolin-4-yloxy)-phenyl]-3-(3,3-dimethyl-butyl)-urea]"
8,221 nM,"COc1cc2c(Oc3ccc(NC(=O)NCCC(C)(C)C)cc3)ccnc2cc1OCCCCl [Compound 151, 1-{4-[7-(3-Chloro-propoxy)-6-methoxy-quinolin-4-yloxy]-phenyl}-3-(3,3-dimethyl-butyl)-urea]"
9,24.3 nM,"COc1cc2nccc(Oc3ccc(NC(=O)NCCC(C)(C)C)cc3)c2cc1OCCN(C)C [Compound 222, 1-{4-[6-(2-Dimethylamino-ethoxy)-7-methoxy-quinolin-4-yloxy]-phenyl}-3-(3,3-dimethyl-butyl)-urea]"
10,32.8 nM,"COc1cc2nccc(Oc3ccc(NC(=O)NCCC(C)(C)C)cc3Cl)c2cc1OC [Compound 374, 1-[3-Chloro-4-(6,7-dimethoxy-quinolin-4-yloxy)-phenyl]-3-(3,3-dimethyl-butyl)-urea]"
11,20.7 nM,"COc1cc2c(Oc3ccc(NC(=O)NCCC(C)(C)C)cc3)ccnc2cc1OCC(O)CN1CC(C)CC(C)C1 (centres unmarked) [Compound 251, 1-(3,3-Dimethyl-butyl)-3-(4-{7-[3-(3,5-dimethyl-piperidin-1-yl)-2-hydroxy-propoxy]-6-methoxy-quinolin-4-yloxy}-phenyl)-urea]"
12,49.8 nM,"COc1cc2nccc(Oc3ccc(NC(=O)NCCC(C)(C)C)cc3)c2cc1OCCCN1CCOCC1 [Compound 223, 1-(3,3-Dimethyl-butyl)-3-{4-[7-methoxy-6-(3-morpholin-4-yl-propoxy)-quinolin-4-yloxy]-phenyl}-urea]"
13,29.8 nM,"COc1cc2nccc(Oc3ccc(NC(=O)NCCC(C)(C)C)c(Cl)c3)c2cc1OC [Compound 103, 1-[2-Chloro-4-(6,7-dimethoxyquinolin-4-yloxy)-phenyl]-3-(3,3-dimethyl-butyl)-urea]"
14,18.3 nM,"COc1cc2c(Oc3ccc(NC(=O)NCCC(C)(C)C)c(Cl)c3)ccnc2cc1OCCN1CCCN(C)CC1 [Compound 186, 1-(2-Chloro-4-{6-methoxy-7-[2-(4-methyl-[1,4]diazepan-1-yl)-ethoxy]-quinolin-4-yloxy}-phenyl)-3-(3,3-dimethyl-butyl)-urea]"
15,< 10 nM,"COc1cc2c(Oc3ccc(NC(=O)NCCC(C)(C)C)c(F)c3)ccnc2cc1OCCCN1CCOCC1 [Compound 210, 1-(3,3-Dimethyl-butyl)-3-{2-fluoro-4-[6-methoxy-7-(3-morpholin-4-yl-propoxy)-quinolin-4-yloxy]-phenyl}-urea]"
16,317 nM,"COc1cc(Oc2ccnc3cc(OC)c(OC)cc23)ccc1NC(=O)NCCC(C)(C)C [Compound 138, 1-[4-(6,7-Dimethoxy-quinolin-4-yloxy)-2-methoxy-phenyl]-3-(3,3-dimethyl-butyl)-urea]"
17,10.8 nM,"COc1cc2c(Oc3ccc(NC(=O)NCCC(C)(C)C)c(F)c3)ccnc2cc1OCCCNCCO [Compound 332, 1-(3,3-Dimethyl-butyl)-3-(2-fluoro-4-{7-[3-(2-hydroxy-ethylamino)-propoxy]-6-methoxy-quinolin-4-yloxy}-phenyl)-urea]"
18,< 10 nM,"COc1cc2c(Oc3ccc(NC(=O)NCCC(C)(C)C)c(Cl)c3)ccnc2cc1OCC(O)CN1CCOCC1 (centres unmarked) [Compound 195, 1-{2-Chloro-4-[7-(2-hydroxy-3-morpholin-4-yl-propoxy)-6-methoxy-quinolin-4-yloxy]-phenyl}-3-(3,3-dimethyl-butyl)-urea]"
19,15.4 nM,"CCN(CC)CCCOc1cc2nccc(Oc3ccc(NC(=O)NCCC(C)(C)C)c(Cl)c3)c2cc1OC [Compound 183, 1-{2-Chloro-4-[7-(3-diethylamino-propoxy)-6-methoxy-quinolin-4-yloxy]-phenyl}-3-(3,3-dimethyl-butyl)-urea]"
20,17.2 nM,"COc1cc2c(Oc3ccc(NC(=O)NCCC(C)(C)C)cc3F)ccnc2cc1OCCCN1CCC(O)CC1 [Compound 286, 1-(3,3-Dimethyl-butyl)-3-(3-fluoro-4-{7-[3-(4-hydroxy-piperidin-1-yl)-propoxy]-6-methoxy-quinolin-4-yloxy}-phenyl)-urea]"

# Source: patent US7495104B2, “Quinoline or quinazoline derivatives inhibiting auto-phosphorylation of fibroblast growth factor receptors” (Kirin Beer Kabushiki Kaisha, priority 2001, dated 2009)
